Measurements from patent US11105799B2, “Biomarkers of therapeutic responsiveness” (Meso Scale Technologies, LLC., priority 2009, dated 2021).

Columns and labels:
GSK30 = conditions: melanoma cells; cited from earlier work
tumor vasculature = conditions: xenograft studies; cited from earlier work
human 786-0 RCC cells [1] = test: Multiplex immunoassay of biomarker levels in RCC xenograft tissue extracts from mice; assay type: in vivo; conditions: for AMPKa1 Total marker concentration +/- SD / AMPKa1 p174 marker concentration +/- SD / AMPKa1 p285 marker concentration +/- SD / Gsk3b Phospho marker concentration +/- SD / Gsk3b Total marker concentration +/- SD / Mek1/2 Phospho marker concentration +/- SD / Mek1/2 Total marker concentration +/- SD: 1 ug protein/well; for STAT3 Phospho marker concentration +/- SD: 2 ug protein/well; for Hif1a Total marker concentration +/- SD: 4 ug protein/well
Method: A panel of biomarkers was measured in RCC xenograft tissue extracts from mice. The mice were implanted with human 786-0 RCC cells and the cells were allowed to grow until a tumor of approximately 12 mm diameter was formed. The “Set A” group of mice received no drug treatment prior to removal of the xenograft tissue.
Multiplex immunoassay kits were used for detection of total and/or phosphorylated biomarkers (supplied by Meso Scale Diagnostics, LLC, Gaithersburg, Md.). Levels of each biomarker were determined by calibration of the assays with were either purified calibrator proteins or using control cell lysates from appropriately treated cultured cell lines (e.g., cells subjected to conditions known to induce or reduce levels of a specific biomarker). Calibration curves were derived by testing serial dilutions of the calibrator lysates or purified proteins. Levels of biomarkers in test samples were back-calculated from the calibration curves and were expressed in terms of wt. of protein per weight of tissue extract (for purified calibrators) or in terms of weight of crude control lysate protein per well (for lysate calibrators). Titrations of tumor extracts were carried out to determine the linearity of the assay response to sample dilution and to select the sample dilution that would be appropriate to use for each assay panel.
In general, the assay format was as follows, with minor alterations for specific assay panels as indicated in the assay protocols provided with each assay kit (supplied by Meso Scale Diagnostics, LLC): (1) block MSD MULTI-SPOT® plate for 1 hour with appropriate MSD® blocking solution and wash; (2) add 25 μl assay diluent to each well, if specified; (3) add 25 μl calibrator, or sample (diluted as appropriate) to each well; (4) incubate with shaking for 1-3 hours (time as specified) and wash the well; (5) add 25 μl labeled detection antibody solution to each well; (6) incubate with shaking for 1-2 hours (time as specified) and wash the well; (7) add 150 μl MSD read buffer to each well; (8) read plate immediately on MSD SI6000 Reader (supplied by Meso Scale Diagnostics, LLC).

human 786-0 RCC cells [2] = test: Tumor size of human 786-0 RCC xenografts in mice treated with sorafenib; assay type: in vivo; conditions: tumor approximately 12 mm diameter at start
Method: A panel of biomarkers was measured in RCC xenograft tissue extracts from mice. The mice were implanted with human 786-0 RCC cells and the cells were allowed to grow until a tumor of approximately 12 mm diameter was formed. The “Set A” group of mice received no drug treatment prior to removal of the xenograft tissue. The other two groups of mice—“Set C” and “Set D”—were treated with sorafenib prior to removal of the xenograft tissue. […] The “Set D” developed resistance to the drug and the tumor size increased to 16 mm in diameter during treatment.

[3] = Tumor Group C (treated), sensitive to sorafenib, 0.5 ug total protein/well
[4] = Tumor Group C (treated), sensitive to sorafenib
[5] = Tumor Group C (treated), sensitive to sorafenib, 2.5 ug protein/well
[6] = Tumor Group D (resistant), sorafenib treated, 0.5 ug total protein/well
[7] = Tumor Group D (resistant), sorafenib treated
[8] = Tumor Group D (resistant), sorafenib treated, 2.5 ug protein/well

CNC(=O)c1cc(Oc2ccc(NC(=O)Nc3ccc(Cl)c(C(F)(F)F)c3)cc2)ccn1 [sorafenib]
effect on GSK3β activity (GSK30): activates GSK30 | effect on tumor vasculature (tumor vasculature): reduction in tumor vasculature | Akt Phospho marker concentration +/- SD (human 786-0 RCC cells [1]; [3]): 348 +/− 85 ng calibrator lysate protein/w | Akt Total marker concentration +/- SD (human 786-0 RCC cells [1]; [3]): 142 +/− 43 ng calibrator lysate protein/w | Erk1/2 Phospho marker concentration +/- SD (human 786-0 RCC cells [1]; [3]): 102 +/− 45 ng calibrator lysate protein/w | Met Phospho marker concentration +/- SD (human 786-0 RCC cells [1]; [3]): 34 +/− 7 ng calibrator lysate protein/w | Met Total marker concentration +/- SD (human 786-0 RCC cells [1]; [3]): 850 +/− 375 ng calibrator lysate protein/w | p21 Total marker concentration +/- SD (human 786-0 RCC cells [1]; [3]): 1.1 +/− 0.3 pg/ug tumor protein | p38 Total marker concentration +/- SD (human 786-0 RCC cells [1]; [3]): 449 +/− 266 ng calibrator lysate protein/w | AMPKa1 Total marker concentration +/- SD (human 786-0 RCC cells [1]; [4]): 29 +/− 13 pg/ug tumor protein | AMPKa1 p174 marker concentration +/- SD (human 786-0 RCC cells [1]; [4]): 7.3 +/− 4.4 pg/ug tumor protein | AMPKa1 p285 marker concentration +/- SD (human 786-0 RCC cells [1]; [4]): 29 +/− 15 pg/ug tumor protein | Gsk3b Phospho marker concentration +/- SD (human 786-0 RCC cells [1]; [4]): 1188 +/− 446 ng calibrator lysate protein/w | Gsk3b Total marker concentration +/- SD (human 786-0 RCC cells [1]; [4]): 3771 +/− 1491 ng calibrator lysate protein/w | Mek1/2 Phospho marker concentration +/- SD (human 786-0 RCC cells [1]; [4]): 116 +/− 21 ng calibrator lysate protein/w | Mek1/2 Total marker concentration +/- SD (human 786-0 RCC cells [1]; [4]): 350 +/− 90 ng calibrator lysate protein/w | STAT3 Phospho marker concentration +/- SD (human 786-0 RCC cells [1]; [4]): 65 +/− 16 ng calibrator lysate protein/w | Jnk Phospho marker concentration +/- SD (human 786-0 RCC cells [1]; [5]): 74 +/− 29 ng calibrator lysate protein/w | Jnk Total marker concentration +/- SD (human 786-0 RCC cells [1]; [5]): 983 +/− 356 ng calibrator lysate protein/w | PlGF Total marker concentration +/- SD (human 786-0 RCC cells [1]; [5]): 0.083 +/− 0.031 pg/ug tumor protein | VEGFR-1 Total marker concentration +/- SD (human 786-0 RCC cells [1]; [5]): 0.26 +/− 0.08 pg/ug tumor protein | bFGF Total marker concentration +/- SD (human 786-0 RCC cells [1]; [5]): 2.1 +/− 0.6 pg/ug tumor protein | Hif1a Total marker concentration +/- SD (human 786-0 RCC cells [1]; [4]): 19 +/− 3 ng calibrator lysate protein/w | Akt Phospho marker concentration +/- SD (human 786-0 RCC cells [1]; [6]): 354 +/− 84 ng calibrator lysate protein/w | Akt Total marker concentration +/- SD (human 786-0 RCC cells [1]; [6]): 93 +/− 25 ng calibrator lysate protein/w | Erk1/2 Phospho marker concentration +/- SD (human 786-0 RCC cells [1]; [6]): 206 +/− 103 ng calibrator lysate protein/w | Erk1/2 Total marker concentration +/- SD (human 786-0 RCC cells [1]; [6]): 486 +/− 306 ng calibrator lysate protein/w | Met Phospho marker concentration +/- SD (human 786-0 RCC cells [1]; [6]): 41 +/− 6 ng calibrator lysate protein/w | Met Total marker concentration +/- SD (human 786-0 RCC cells [1]; [6]): 595 +/− 137 ng calibrator lysate protein/w | p21 Total marker concentration +/- SD (human 786-0 RCC cells [1]; [6]): 2.2 +/− 0.9 pg/ug tumor protein | p38 Total marker concentration +/- SD (human 786-0 RCC cells [1]; [6]): 428 +/− 227 ng calibrator lysate protein/w | AMPKa1 Total marker concentration +/- SD (human 786-0 RCC cells [1]; [7]): 26 +/− 10 pg/ug tumor protein | AMPKa1 p174 marker concentration +/- SD (human 786-0 RCC cells [1]; [7]): 3.8 +/− 0.9 pg/ug tumor protein | AMPKa1 p285 marker concentration +/- SD (human 786-0 RCC cells [1]; [7]): 19 +/− 5 pg/ug tumor protein | Gsk3b Phospho marker concentration +/- SD (human 786-0 RCC cells [1]; [7]): 1474 +/− 294 ng calibrator lysate protein/w | Gsk3b Total marker concentration +/- SD (human 786-0 RCC cells [1]; [7]): 3829 +/− 1058 ng calibrator lysate protein/w | Mek1/2 Phospho marker concentration +/- SD (human 786-0 RCC cells [1]; [7]): 113 +/− 24 ng calibrator lysate protein/w | Mek1/2 Total marker concentration +/- SD (human 786-0 RCC cells [1]; [7]): 359 +/− 103 ng calibrator lysate protein/w | STAT3 Phospho marker concentration +/- SD (human 786-0 RCC cells [1]; [7]): 41 +/− 10 ng calibrator lysate protein/w | Jnk Phospho marker concentration +/- SD (human 786-0 RCC cells [1]; [8]): 110 +/− 22 ng calibrator lysate protein/w | Jnk Total marker concentration +/- SD (human 786-0 RCC cells [1]; [8]): 878 +/− 231 ng calibrator lysate protein/w | PlGF Total marker concentration +/- SD (human 786-0 RCC cells [1]; [8]): 0.144 +/− 0.073 pg/ug tumor protein | VEGF Total marker concentration +/- SD (human 786-0 RCC cells [1]; [8]): 26 +/− 15 pg/ug tumor protein | VEGFR-1 Total marker concentration +/- SD (human 786-0 RCC cells [1]; [8]): 0.39 +/− 0.14 pg/ug tumor protein | bFGF Total marker concentration +/- SD (human 786-0 RCC cells [1]; [8]): 2.6 +/− 1.3 pg/ug tumor protein | Hif1a Total marker concentration +/- SD (human 786-0 RCC cells [1]; [7]): 14 +/− 3 ng calibrator lysate protein/w | tumor size (human 786-0 RCC cells [2]; Set C, sensitive): tumor size decreased | tumor size (diameter) during treatment (human 786-0 RCC cells [2]; Set D, developed resistance): 16 mm
